The results in this text go back to patent US10485895B2, “Self-assembling peptide scaffolds” (CELLULAR AND MOLECULAR RESEARCH CENTER, IRAN UNIVERSITY OF …, priority 2016, dated 2019).

The data set has as its system Mg-63 cells. Put plainly: LDH cytotoxicity assay (LDH release as marker of dead cells). It counts as cell-based. The note with it: control group = 100%, aloe vera extract 5% (v/v), SDKP about 75 micrograms per milliliter, Fingolimod hydrochloride about 10 nanogram per milliliter, FIG. 3. On the procedure:
In some cases, lactate dehydrogenase (LDH) assays can be performed by assessing or measuring the LDH released into the media as a marker of dead cells. In this example, biocompatibility and cytotoxicity of the injectable scaffold of the present disclosure as a whole and its components were measured by an LDH cytotoxicity assay as follows.
Mg-63 cell line was the source of osteoblast cells in the following assays. Six test groups and one control group of Mg-63 cells were prepared for investigating the cytotoxicity effects of the present injectable scaffold and its components. FIG. 3 illustrates the data of LDH release from Mg-63 cells of six test groups and one control group. […]

As for `C[C@H](NC(=O)[C@H](CC(=O)O)NC(=O)[C@H](C)NC(=O)[C@H](CCCNC(=N)N)NC(=O)[C@H](C)NC(=O)[C@H](CC(=O)O)NC(=O)[C@H](C)NC(=O)[C@H](CCCNC(=N)N)NC(=O)[C@H](C)NC(=O)[C@H](CC(=O)O)NC(=O)[C@H](C)NC(=O)[C@H](CCCNC(=N)N)NC(=O)[C@H](C)NC(=O)[C@H](CC(=O)O)NC(=O)[C@H](C)NC(=O)[C@@H](N)CCCNC(=N)N)C(=O)O` [R], the LDH release entry is reported as “about 62.35%”.
